Values joined by “and” are separate entries in the source; they are usually repeats but may differ in a detail not shown here. Equal entries are not always repeated. Toxic doses and inconclusive results are not listed.
Tested on: L1210 leukemia ip in BDF1 mice, survival T/C
Experiment: NCI In Vivo Anticancer Drug Screen. Data for tumor model L1210 Leukemia (intraperitoneal) in B6D2F1 (BDF1) mice
Settings: endpoint: mean survival time, higher = longer survival
Summary of the method: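 Antitumor effect is assessed in tumor-bearing animals. Survival in the compound arm is compared with a vehicle-dosed control arm and expressed as their quotient.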

[1] = dose: 100.0 mg/kg/injection, schedule: Q01DX009 (ip), vehicle: saline
[2] = dose: 100.0 mg/kg/injection, schedule: Q04DX003 (ip), vehicle: saline
[3] = dose: 200.0 mg/kg/injection, schedule: Q01DX009 (ip), vehicle: saline
[4] = dose: 200.0 mg/kg/injection, schedule: Q04DX003 (ip), vehicle: saline
[5] = dose: 400.0 mg/kg/injection, schedule: Q01DX009 (ip), vehicle: saline
[6] = dose: 400.0 mg/kg/injection, schedule: Q04DX003 (ip), vehicle: saline
[7] = dose: 100.0 mg/kg/injection, schedule: Q01DX001 (ip), vehicle: Klucel (hydroxypropylcellulose) (HPC)
[8] = dose: 100.0 mg/kg/injection, schedule: Q04DX003 (ip), vehicle: Klucel (hydroxypropylcellulose) (HPC)
[9] = dose: 200.0 mg/kg/injection, schedule: Q01DX001 (ip), vehicle: Klucel (hydroxypropylcellulose) (HPC)
[10] = dose: 200.0 mg/kg/injection, schedule: Q04DX003 (ip), vehicle: Klucel (hydroxypropylcellulose) (HPC)
[11] = dose: 400.0 mg/kg/injection, schedule: Q01DX001 (ip), vehicle: Klucel (hydroxypropylcellulose) (HPC)
[12] = dose: 400.0 mg/kg/injection, schedule: Q04DX003 (ip), vehicle: Klucel (hydroxypropylcellulose) (HPC)
[13] = dose: 100.0 mg/kg/injection, schedule: Q01DX009 (ip), vehicle: Klucel (hydroxypropylcellulose) (HPC)
[14] = dose: 100.0 mg/kg/injection, schedule: Q01DX001 (ip), vehicle: saline
[15] = dose: 200.0 mg/kg/injection, schedule: Q01DX001 (ip), vehicle: saline
[16] = dose: 400.0 mg/kg/injection, schedule: Q01DX001 (ip), vehicle: saline
[17] = dose: 200.0 mg/kg/injection, schedule: Q01DX009 (ip), vehicle: Klucel (hydroxypropylcellulose) (HPC)
[18] = dose: 400.0 mg/kg/injection, schedule: Q01DX009 (ip), vehicle: Klucel (hydroxypropylcellulose) (HPC)
[19] = dose: 100.0 mg/kg/injection, schedule: Q01DX009 (ip), vehicle: saline with Tween-80
[20] = dose: 200.0 mg/kg/injection, schedule: Q01DX009 (ip), vehicle: saline with Tween-80
[21] = dose: 200.0 mg/kg/injection, schedule: Q04DX003 (ip), vehicle: saline with Tween-80
[22] = dose: 400.0 mg/kg/injection, schedule: Q01DX009 (ip), vehicle: saline with Tween-80

CCOC(=O)CCN1CCCCCC1
T/C [1]: 104 % of control
T/C [2]: 92 % of control
T/C [3]: 104 % of control
T/C [4]: 98 % of control
T/C [5]: 101 % of control
T/C [6]: 102 % of control

Cc1cc(CN(C)C)cc(C(C)C)c1O
T/C (dose: 12.5 mg/kg/injection, schedule: Q01DX009 (ip), vehicle: saline with Tween-80): 96 % of control
T/C (dose: 25.0 mg/kg/injection, schedule: Q01DX009 (ip), vehicle: saline with Tween-80): 97 % of control

Cc1ccc(C(=O)c2ccn[nH]2)cc1
T/C [7]: 93 % of control
T/C [8]: 96 % of control
T/C [9]: 94 % of control
T/C [10]: 93 % of control
T/C [11]: 98 % of control
T/C [12]: 96 % of control

C[NH-].C[NH-].C[NH-].C[NH-].[Cl][Rh][Cl]
T/C [13]: 97 % of control
T/C [8]: 86 % of control
T/C [10]: 94 % of control
T/C [12]: 92 % of control

Cc1cc(C)c(O)c(N=O)c1.[Cu+2]
T/C (dose: 50.0 mg/kg/injection, schedule: Q01DX001 (ip), vehicle: saline): 101 % of control
T/C [14]: 97 % of control
T/C [15]: 101 % of control
T/C [16]: 97 % of control

CCCCCCCCCCCCCCCCNC(=O)C[N+](C)(C)Cc1ccccc1
T/C (dose: 2.5 mg/kg/injection, schedule: Q01DX009 (ip), vehicle: saline with Tween-80): 101 % of control
T/C (dose: 5.0 mg/kg/injection, schedule: Q01DX009 (ip), vehicle: saline with Tween-80): 98 % of control

O=[N+]([O-])c1ccc(S(=O)(=O)/N=C2\CCS(=O)(=O)c3ccccc32)cc1
T/C [14]: 92 % of control
T/C [15]: 92 % of control
T/C [16]: 93 % of control

CSCCC1NC(=O)C(/C(C)=N\NC(N)=O)=C1O (centres undefined)
T/C (dose: 50.0 mg/kg/injection, schedule: Q01DX001 (ip), vehicle: carboxymethylcellulose (CMC)): 101 % of control
T/C (dose: 100.0 mg/kg/injection, schedule: Q01DX001 (ip), vehicle: carboxymethylcellulose (CMC)): 103 % of control
T/C (dose: 200.0 mg/kg/injection, schedule: Q01DX001 (ip), vehicle: carboxymethylcellulose (CMC)): 103 % of control
T/C (dose: 400.0 mg/kg/injection, schedule: Q01DX001 (ip), vehicle: carboxymethylcellulose (CMC)): 101 % of control

Cc1cc(C)c(NC(=O)c2ccco2)cc1C
T/C [13]: 105 % of control
T/C [17]: 92 % of control
T/C [18]: 105 % of control

CCN(CC)CCn1c2ccccc2c2cc3cnccc3c(C)c21
T/C (dose: 18.75 mg/kg/injection, schedule: Q01DX009 (ip), vehicle: saline): 109 % of control
T/C (dose: 37.5 mg/kg/injection, schedule: Q01DX009 (ip), vehicle: saline): 109 % of control
T/C (dose: 37.5 mg/kg/injection, schedule: Q04DX003 (ip), vehicle: Klucel (hydroxypropylcellulose) (HPC)): 106 % of control
T/C (dose: 75.0 mg/kg/injection, schedule: Q01DX009 (ip), vehicle: saline): 114 % of control
T/C (dose: 75.0 mg/kg/injection, schedule: Q04DX003 (ip), vehicle: Klucel (hydroxypropylcellulose) (HPC)): 105 % of control
T/C (dose: 150.0 mg/kg/injection, schedule: Q01DX009 (ip), vehicle: saline): 89 % of control
T/C (dose: 150.0 mg/kg/injection, schedule: Q04DX003 (ip), vehicle: Klucel (hydroxypropylcellulose) (HPC)): 87 % of control

COC(=O)c1ccc(Cl)cc1[N+](=O)[O-]
T/C [1]: 101 % of control
T/C [3]: 100 % of control
T/C [5]: 100 % of control

COc1ccc(C=O)c(Cl)c1OC
T/C [13]: 94 % of control
T/C [2]: 92 % of control
T/C [17]: 94 % of control
T/C [4]: 108 % of control
T/C [6]: 98 % of control

N#CCCc1c(-c2ccccc2)nc(N)[nH]c1=O
T/C (dose: 100.0 mg/kg/injection, schedule: Q04DX003 (ip), vehicle: carboxymethylcellulose (CMC)): 92 % of control
T/C (dose: 200.0 mg/kg/injection, schedule: Q04DX003 (ip), vehicle: carboxymethylcellulose (CMC)): 92 % of control
T/C (dose: 400.0 mg/kg/injection, schedule: Q04DX003 (ip), vehicle: carboxymethylcellulose (CMC)): 87 % of control

CCCCC[N+](C)(C)CCOC(=O)C1C2CC3OC(=O)C1C3C2 (centres undefined)
T/C [2]: 95 % of control

Cc1c(Cl)cccc1NC(=O)N1CCCC(C)C1 (centres undefined)
T/C [19]: 94 % of control and 90 % of control
T/C (dose: 100.0 mg/kg/injection, schedule: Q04DX002 (ip), vehicle: saline with Tween-80): 96 % of control and 89 % of control
T/C (dose: 100.0 mg/kg/injection, schedule: Q04DX003 (ip), vehicle: saline with Tween-80): 96 % of control
T/C [20]: 90 % of control
T/C (dose: 200.0 mg/kg/injection, schedule: Q04DX002 (ip), vehicle: saline with Tween-80): 86 % of control and 89 % of control
T/C [21]: 102 % of control
T/C [22]: 93 % of control and 95 % of control
T/C (dose: 400.0 mg/kg/injection, schedule: Q04DX002 (ip), vehicle: saline with Tween-80): 93 % of control and 89 % of control
T/C (dose: 400.0 mg/kg/injection, schedule: Q04DX003 (ip), vehicle: saline with Tween-80): 97 % of control

CC(=O)OC(C(O)C=O)C(O)C(O)CO (centres undefined) (tested in a mixture with another compound)
T/C (dose: 100.0 mg/kg/injection, schedule: Q04DX002 (ip), vehicle: Klucel (hydroxypropylcellulose) (HPC)): 107 % of control
T/C (dose: 200.0 mg/kg/injection, schedule: Q04DX002 (ip), vehicle: Klucel (hydroxypropylcellulose) (HPC)): 88 % of control

Cc1ccc(OC(=O)Nc2ccc(C(=O)O)c(O)c2)cc1
T/C [1]: 96 % of control
T/C [2]: 96 % of control
T/C [3]: 89 % of control
T/C [4]: 93 % of control
T/C [6]: 95 % of control

CN(C)c1ccc(/C=N/NC(N)=S)nc1
T/C (dose: 5.0 mg/kg/injection, schedule: Q03HX032 (ip), vehicle: saline with Tween-80): 116 % of control
T/C (dose: 12.0 mg/kg/injection, schedule: Q03HX032 (ip), vehicle: saline with Tween-80): 158 % of control
T/C (dose: 18.0 mg/kg/injection, schedule: Q03HX032 (ip), vehicle: saline with Tween-80): 188 % of control and 320 % of control
T/C (dose: 19.0 mg/kg/injection, schedule: Q04DX003 (ip), vehicle: saline with Tween-80): 110 % of control
T/C (dose: 44.0 mg/kg/injection, schedule: Q04DX003 (ip), vehicle: saline with Tween-80): 162 % of control
T/C (dose: 67.0 mg/kg/injection, schedule: Q04DX003 (ip), vehicle: saline with Tween-80): 118 % of control
T/C [21]: 113 % of control

COC(=O)C(CO)NC(c1ccccc1)(c1ccccc1)c1ccccc1 (centres undefined)
T/C (dose: 50.0 mg/kg/injection, schedule: Q01DX009 (ip), vehicle: saline): 91 % of control
T/C [1]: 95 % of control
T/C [3]: 92 % of control
T/C [5]: 97 % of control

Cc1ccc(NCCO)c2c(=O)c3ccccc3sc12
T/C [14]: 101 % of control
T/C [15]: 101 % of control
T/C [16]: 89 % of control

Clc1ccc(C2OCCO2)cc1
T/C [13]: 94 % of control
T/C [17]: 95 % of control
T/C [18]: 107 % of control

CC(C)(CC(=O)c1ccccc1)CC(=O)c1ccccc1
T/C [14]: 109 % of control
T/C [15]: 116 % of control
T/C [16]: 98 % of control

CC(OC(=O)c1ccc([N+](=O)[O-])cc1)C(C)OC(=O)c1ccc([N+](=O)[O-])cc1 (centres undefined)
T/C [7]: 92 % of control
T/C [9]: 97 % of control
T/C [11]: 97 % of control

O=C1C(I)=CC(=C(c2cc(I)c(O)c(I)c2)c2ccccc2C(=O)O)C=C1I
T/C [13]: 94 % of control
T/C [8]: 98 % of control
T/C [17]: 89 % of control
T/C [10]: 98 % of control
T/C [18]: 98 % of control
T/C [12]: 98 % of control

O=C(CCN1C(=O)CCC1=O)NCCc1ccccc1
T/C [19]: 97 % of control
T/C [20]: 98 % of control
T/C [22]: 101 % of control

Cc1ccc(S(=O)(=O)OC2C3OC(=S)OCC3OC3OC(C)(C)OC32)cc1 (centres undefined)
T/C (dose: 25.0 mg/kg/injection, schedule: Q04DX002 (ip), vehicle: saline): 104 % of control
T/C (dose: 50.0 mg/kg/injection, schedule: Q04DX002 (ip), vehicle: saline): 107 % of control
T/C (dose: 100.0 mg/kg/injection, schedule: Q04DX002 (ip), vehicle: saline): 107 % of control

Source: PubChem BioAssay AID248 (DTP/NCI, 2004)
